Results reported in paper PMC2171590 (The Journal of Cell Biology, 2005).

What was measured:
[1] = molecular target: Arp2/3 complex (yeast) (Saccharomyces cerevisiae, UniProt P32381+P47117, P47117:G358Y); assay: fluorescence increase titration, one-site fit; format: binding
[2] = molecular target: Arp2/3 complex (yeast) (Saccharomyces cerevisiae, UniProt P32381+P47117, P47117:D12A); assay: fluorescence increase titration, one-site fit; format: binding
[3] = molecular target: Arp2/3 complex (yeast) (Saccharomyces cerevisiae, UniProt P32381+P47117, P32381:G305Y); assay: fluorescence increase titration, one-site fit; format: binding
[4] = molecular target: Arp2/3 complex (yeast) (Saccharomyces cerevisiae, UniProt P32381+P47117); assay: fluorescence increase titration, one-site fit; format: binding
[5] = molecular target: Arp2/3 complex (yeast) (Saccharomyces cerevisiae, UniProt P32381+P47117, P47117:F362A); assay: fluorescence increase titration, one-site fit; format: binding
[6] = molecular target: Arp2/3 complex (yeast) (Saccharomyces cerevisiae, UniProt P32381+P47117, P32381:Y309A); assay: fluorescence increase titration, one-site fit; format: binding
[7] = molecular target: Arp2/3 complex (yeast) (Saccharomyces cerevisiae, UniProt P32381+P47117, P32381:D10A); assay: fluorescence increase titration, one-site fit; format: binding
[8] = molecular target: GST-tagged Las17WCA (S. cerevisiae); assay: pull-down
GST-tagged Las17WCA (S. cerevisiae), sequence (Q12446 whole entry): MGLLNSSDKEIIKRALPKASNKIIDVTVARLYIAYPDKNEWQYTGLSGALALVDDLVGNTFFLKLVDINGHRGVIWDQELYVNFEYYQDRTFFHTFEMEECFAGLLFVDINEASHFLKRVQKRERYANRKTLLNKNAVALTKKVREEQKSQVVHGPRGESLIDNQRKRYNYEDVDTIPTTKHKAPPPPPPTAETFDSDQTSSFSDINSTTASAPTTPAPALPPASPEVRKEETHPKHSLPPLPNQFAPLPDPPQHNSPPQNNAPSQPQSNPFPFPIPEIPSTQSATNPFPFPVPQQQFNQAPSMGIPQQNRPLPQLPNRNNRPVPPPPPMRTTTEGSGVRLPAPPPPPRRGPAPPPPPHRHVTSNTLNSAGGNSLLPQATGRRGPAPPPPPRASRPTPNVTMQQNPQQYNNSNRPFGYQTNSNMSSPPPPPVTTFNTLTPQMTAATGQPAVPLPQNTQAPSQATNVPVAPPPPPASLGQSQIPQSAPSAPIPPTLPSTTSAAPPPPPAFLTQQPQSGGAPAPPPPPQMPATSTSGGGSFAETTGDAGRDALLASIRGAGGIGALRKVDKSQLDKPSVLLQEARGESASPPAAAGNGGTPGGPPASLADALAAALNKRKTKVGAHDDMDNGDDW

Molecule: O=P(O)(O)OP(=O)(O)OP(=O)(O)OC[C@H]1O[C@@H](n2cnc3c2ncn2ccnc32)[C@H](O)[C@@H]1O [etheno-ATP]
- Kd [1]: 22 ± 4.4 µM
- Kd [2]: 34.5 ± 2.2 µM
- Kd [3]: 1800 ± 100 nM
- Kd [4]: 2300 ± 100 nM
- Kd [5]: 16.7 ± 4.2 µM
- Kd [6]: 2400 ± 200 nM
- Kd [7]: 2000 ± 100 nM

Molecule: arp2-G302Y Arp2/3 complex (from UniProt P47117 1-449; P38328 1-384; Q05933 1-178; P40518 1-154)
- Kd [8]: 3.9 µM

Molecule: arp3-G302Y Arp2/3 complex (from UniProt P32381 1-391; P38328 1-384; Q05933 1-178; P40518 1-154)
- Kd [8]: 4.5 µM

Molecule: wild-type yeast Arp2/3 complex (from UniProt P32381 1-391; P47117 1-449; P38328 1-384; Q05933 1-178; P40518 1-154)
- Kd [8]: 4.5 µM
